Results published in patent publication US4695576A, “L-N-n-propylpipecolic acid-2,6-xylidide” (priority 1985, dated 1987).

Columns and labels:
tissue [1] = conditions: in vivo; cited from earlier work
[2] = Anesthetic activity/potency comparison; assay type: in vivo; conditions: comparison within homologous series
ulnar volar nerves = assay: Finger blockade, digital nerve blocks in man; assay type: in vivo; conditions: for Time of onset, finger blockade: time from injection to complete analgesia
Method: ^2 Digital nerve blocks in man. The test solutions were injected to
block the ulnar volar nerves on the 2nd and 4th fingers of the same
volunteers who had participated in the intracutaneous wheal tests
described above. The tests were carried out in a double blind fashion in
rotating system, so that each solution was used with equal frequency on
each of the blocked fingers. A total of for injections 1.0 ml per
injection, was done in each subject. One week later the procedure was
repeated in the same subjects using the remaining test solutions. This
method has been described by Dhuner et al. (1972) (for citation see Table
2 footnote 1). To measure the efficacy and duration of the blocks, the
individual fingers were pricked rapidly 10 times with a needle algesimete
and the number of painful pricks noted. Each finger was tested every five
minutes until complete recovery. The time of complete anesthesia has been
called "duration of anesthesia".
*i.e. the time from injection to complete analgesia?
**i.e. the number of successful anesthesias of total number of
anesthesias performed (no anesthesia is possible if the ulnar volar nerve
are not contacted by the anesthetic).

skin = assay: Skin temperature measurements within intracutaneous wheals; assay type: in vivo, man; conditions: for Temperature Difference (T1 wheal vs T2 controls) / T1 Intracutaneous Wheal temperature: HCl-salt, 10 minutes after injection; for T1 Intracutaneous Wheal temperature: mean of 6 wheals
Method: The mean value of 6 wheals for each substance forms the basis for the values. The control values, however, represent the mean value obtained from 4 different sites measured outside the wheals 90 degrees apart and 2 centimeters from the wheal's center.
In the temperature measurements, an Oriel temperature apparatus* has been used. This is battery driven and is connected to a detector (diameter, 2.5 mm) and has an accuracy of ±0.1° C. The temperature of the skin is measured by pressing the detector against the skin with a pressure of 100 grams. It is retained against the skin until a constant temperature is obtained.
In Table 4, T1 is the measurement obtained at the center of the wheal, and T2 is the average of four measurements taken 90 degrees apart outside of the wheal and within 2 centimeters of the wheal's center.

tissue [3] = assay: Tissue toxicity limits (Trypan blue test, threshold of tissue irritancy); assay type: in vivo; conditions: in vivo
Text: The toxicity of the homologous series of N-alkylpipecolic acid-2,6-xylidides increases step wise and quickly with the lengthening of the alkyl chain. This is manifest from Table 1 set forth below, which compares racemic mixtures of alkyl homologues having from 1 to 5 carbon atoms.
*Trypan blue test; Hoppe et al. (1950), 39, 147-151 "Use of Trypan Blue
and Rabbit Eye Tests For Irritation", J. Amer. Pharm. Assoc. (Scient.
Ed.), the values are approximate threshold values of tissue irritancy.

[4] = system: peripheral nerve endings of the epidermis; assay: Intracutaneous wheals, infiltration anesthesia on forearms of man; assay type: in vivo; conditions: 12 healthy volunteers, pinprick
Text: By use of intracutaneous wheals it is possible to measure the analgesic effect of an anesthetic on the peripheral nerve endings of the epidermis.
This technique gives information about:
(1) The duration of anesthesia.
^1 Infiltration anesthesia on forearms of man. The test solutions wer
injected intracutaneously on the dorsum of the forearms of 12 healthy
volunteers, 20-25 years old. Three wheals were made on each arm in a
rotating system in a doublebind fashion. The local anesthetic effect was
tested using a pinprick technique. The "duration of anesthesia" was
defined as the time during which none out of six pinpricks into the wheal
was felt. The method has been described by Dhuner et al. (1972). […]

## CCCCCN1CCCC[C@@H]1C(=O)Nc1c(C)cccc1C [5 D]
Tissue [1]
  tissue irritation: irritating

## CCCN1CCCCC1C(=O)Nc1c(C)cccc1C (stereo not drawn) [3 R, N--n-propylpipecolic acid 2,6-xylidide]
[2]
  anesthetic effect: so far below that of the racemic Bupivacaine
Ulnar volar nerves; Concentration 0.25%
  Analgesia-duration, finger blockade: 263 ± 31 min
  Frequency (successful anesthesias of total performed): 9/10
  Time of onset, finger blockade: 10 ± 1 min
skin; Conc. 0.25%
  Temperature Difference (T1 wheal vs T2 controls): -0.1 °C
  T1 Intracutaneous Wheal temperature: 33.1 °C
skin; comparison with lidocaine + adrenaline
  effect on temperature over the wheal: practically no change in temperature
Tissue [3]
  Tissue toxicity limits in %: 1.5%
[4]; Conc. 0.25%
  Analgesia-duration, intracutaneous wheals: 84 ± 15 min

## Cc1cccc(C)c1NC(=O)C1CCCCN1C (racemic) [1 R, N--methylpipecolic acid-2,6-xylidide]
Ulnar volar nerves; Concentration 1.0%
  Analgesia-duration, finger blockade: 102 ± 22 min
  Frequency (successful anesthesias of total performed): 13/13
  Time of onset, finger blockade: 7 ± 2 min
Tissue [3]
  Tissue toxicity limits in %: 3.5%
[4]; Conc. 0.5%
  Analgesia-duration, intracutaneous wheals: 65 ± 9 min

## CCN1CCCC[C@H]1C(=O)Nc1c(C)cccc1C [2 L]
Ulnar volar nerves; Concentration 0.5%
  Analgesia-duration, finger blockade: 141 ± 18 min
  Frequency (successful anesthesias of total performed): 11/13
  Time of onset, finger blockade: 9 ± 2 min

## CCCN1CCCC[C@@H]1C(=O)Nc1c(C)cccc1C [3 D]
Ulnar volar nerves; Concentration 0.25%
  Analgesia-duration, finger blockade: 175 ± 21 min
  Frequency (successful anesthesias of total performed): 7/8
  Time of onset, finger blockade: 14 ± 3 min
[4]; Conc. 0.25%
  Analgesia-duration, intracutaneous wheals: 81 ± 14 min

## CCCCN1CCCC[C@@H]1C(=O)Nc1c(C)cccc1C [4 D]
Ulnar volar nerves; Concentration 0.25%
  Analgesia-duration, finger blockade: 243 ± 38 min
  Frequency (successful anesthesias of total performed): 14/20
  Time of onset, finger blockade: 15 ± 4 min
[4]; Conc. 0.25%
  Analgesia-duration, intracutaneous wheals: 75 ± 11 min

## Cc1cccc(C)c1NC(=O)[C@H]1CCCCN1C [1 D]
Ulnar volar nerves; Concentration 1.0%
  Analgesia-duration, finger blockade: 71 ± 13 min
  Frequency (successful anesthesias of total performed): 9/13
  Time of onset, finger blockade: 7 ± 2 min
[4]; Conc. 0.5%
  Analgesia-duration, intracutaneous wheals: 53 ± 8 min

## CCCCCN1CCCC[C@H]1C(=O)Nc1c(C)cccc1C [5 L]
Tissue [1]
  tissue irritation: irritating

## CCCCN1CCCC[C@H]1C(=O)Nc1c(C)cccc1C [4 L]
Ulnar volar nerves; Concentration 0.25%
  Analgesia-duration, finger blockade: 259 ± 37 min
  Frequency (successful anesthesias of total performed): 13/20
  Time of onset, finger blockade: 13 ± 3 min
[4]; Conc. 0.25%
  Analgesia-duration, intracutaneous wheals: 76 ± 10 min

## Cc1cccc(C)c1NC(=O)[C@@H]1CCCCN1C [1 L]
Ulnar volar nerves; Concentration 1.0%
  Analgesia-duration, finger blockade: 124 ± 21 min
  Frequency (successful anesthesias of total performed): 11/12
  Time of onset, finger blockade: 7 ± 3 min
[4]; Conc. 0.5%
  Analgesia-duration, intracutaneous wheals: 68 ± 11 min

## Cc1cccc(C)c1NC(=O)C1CCCCN1CCO (stereo not drawn) [R--N--2-hydroxyethyl-pipecolic acid-2,6-xylidide]
skin; Conc. 1.0%
  Temperature Difference (T1 wheal vs T2 controls): +0.5 °C
  T1 Intracutaneous Wheal temperature: 31.2 °C

## CCN1CCCC[C@@H]1C(=O)Nc1c(C)cccc1C [2 D]
Ulnar volar nerves; Concentration 0.5%
  Analgesia-duration, finger blockade: 112 ± 21 min
  Frequency (successful anesthesias of total performed): 10/13
  Time of onset, finger blockade: 9 ± 3 min
[4]; Conc. 0.25%
  Analgesia-duration, intracutaneous wheals: 58 ± 11 min
